Test results as given in the pKa sets of Baltruschat and Czodrowski (2020).

Work on `CN(C)CC(F)(F)F` yielded a pKa of 4.8.
With `CN(C)CCCC(C)(C)c1ccc(C(C)(C)C)cc1` the pKa was 9.8.
Compound `CN(C)CC(C)(C)CCc1ccc(C(C)(C)C)cc1` has a pKa of 9.4.
In the case of `CCN(C)C`, the pKa is reported as 10.2.
`FC1(Cc2ccccc2)CCN(CCCc2c[nH]c3ccc(-n4cnnc4)cc23)CC1` gave a pKa of 8.8.
`NCC(F)F` gave a pKa of 7.3.
For `CN(C)C`, the pKa was 9.8.
For `NCCCF`, the pKa was 9.9.
`CC(=O)N1CCNCC1` gave a pKa of 7.9.
In the case of `CCCCN`, the pKa is reported as 10.7.
In the case of `FC1(F)CCCNC1`, the pKa is reported as 7.4.
`CN1CCCCC1` showed a pKa of 10.1.
`CN(C)C(C)(C)CCCc1ccc(C(C)(C)C)cc1` gave a pKa of 10.4.
In the case of `c1ccc(CC2CCN(CCCc3c[nH]c4ccc(-n5cnnc5)cc34)CC2)cc1`, the pKa is reported as 9.7.
`FC1CCCNC1` (stereo not drawn) showed a pKa of 9.3.
`FC1CCNCC1` gave a pKa of 9.4.
For `NCCCC(F)(F)F`, the pKa was 9.7.
`FC(F)(Cc1c[nH]c2ccc(-n3cnnc3)cc12)CN1CCC(Cc2ccccc2)CC1` gave a pKa of 6.7.
`CCCCN(C)C` showed a pKa of 10.2.
Work on `CN(C)CCCCc1ccc(C(C)(C)C)cc1` yielded a pKa of 9.9.
`FC(Cc1c[nH]c2ccc(-n3cnnc3)cc12)CN1CCC(Cc2ccccc2)CC1` (stereo not drawn) showed a pKa of 8.7.
Compound `NCCC(F)(F)F` has a pKa of 8.7.
In the case of `FC1(F)CCNCC1`, the pKa is reported as 8.5.
